According to ChEMBL document CHEMBL1158175, “Substituted benzylaminoalkylindoles with preference for the sigma2 binding site” (Eur J Med Chem, 2008):

What was measured:
[1] = target: Sigma non-opioid intracellular receptor 1 (Rattus norvegicus) (UniProt Q9R0C9); test: Displacement of [3H] (+)-pentazocine from sigma 1 receptor in rat liver homogenate at 100 nM; type: tissue-based
Rattus norvegicus [2] = species on record: Rattus norvegicus; test: Displacement of [3H]DTH from sigma 2 receptor in rat liver homogenate at 100 nM in presence of (+)-pentazocine; type: tissue-based
[3] = target: Sigma non-opioid intracellular receptor 1 (Rattus norvegicus, UniProt Q9R0C9); test: Displacement of [3H] (+)-pentazocine from sigma 1 receptor in rat liver homogenate; type: tissue-based
Sigma non-opioid intracellular receptor 1, sequence (Q9R0C9 whole entry): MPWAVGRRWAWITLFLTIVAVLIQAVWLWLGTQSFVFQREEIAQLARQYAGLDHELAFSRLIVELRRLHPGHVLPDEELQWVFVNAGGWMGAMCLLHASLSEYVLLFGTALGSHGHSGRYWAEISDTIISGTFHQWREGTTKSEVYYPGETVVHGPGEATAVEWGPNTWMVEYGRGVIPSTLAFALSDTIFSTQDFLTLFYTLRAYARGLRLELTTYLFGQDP

[4] = Displacement of [3H]DTH from sigma 2 receptor in rat liver homogenate in presence of (+)-pentazocine; type: tissue-based
Rattus norvegicus [5] = species on record: Rattus norvegicus; test: Selectivity ratio of Ki for rat sigma 1 receptor to Ki for rat sigma 2 receptor

Sigma non-opioid intracellular receptor 1 (Rattus norvegicus), sequence (Q9R0C9 whole entry): as above

Row | Structure (SMILES) | Activity [1] | Activity (Rattus norvegicus [2]) | Ki [3] | Ki [4] | Ratio Ki (Rattus norvegicus [5]) | IC50 [4]
1 | CN(CCCCc1cn(-c2ccc(F)cc2)c2ccccc12)Cc1ccc(Br)cc1 | 70% | 84% |  |  |  | 
2 | CN(CCCCc1cn(-c2ccc(F)cc2)c2ccccc12)Cc1ccccc1Cl | 58% | 87% |  |  |  | 
3 | CN(CCCc1cn(-c2ccc(F)cc2)c2ccccc12)Cc1cccc(Br)c1 | 40% | 62% |  |  |  | 
4 | CN(CCCc1cn(-c2ccc(F)cc2)c2ccccc12)Cc1ccccc1Br | 41% | 43% |  |  |  | 
5 | Cc1cccc(CN(C)CCCc2cn(-c3ccc(F)cc3)c3ccccc23)c1 | 63% | 64% |  |  |  | 
6 | Cc1ccc(CN(C)CCCCc2cn(-c3ccc(F)cc3)c3ccccc23)cc1C | 37% | 93% | 20.8 nM | 5.9 nM | 0.05 | 
7 | CN(CCCCc1cn(-c2ccc(F)cc2)c2ccccc12)Cc1ccccc1Br | 46% | 86% |  |  |  | 
8 | CN(CCCCc1cn(-c2ccc(F)cc2)c2ccccc12)Cc1cccc(Br)c1 | 28% | 78% |  |  |  | 
9 | COc1cccc2c1CCCC2CCCCN1CCN(C2CCCCC2)CC1 (stereo not drawn) |  |  |  | 0.34 nM |  | 
10 | CN(CCCCc1cn(-c2ccc(F)cc2)c2ccccc12)Cc1ccccc1F | 49% | 88% |  |  |  | 
11 | CN(CCCc1cn(-c2ccc(F)cc2)c2ccccc12)Cc1ccc(Cl)c(Cl)c1 | 28% | 39% |  |  |  | 
12 | CN(CCCCc1cn(-c2ccc(F)cc2)c2ccccc12)Cc1ccc(Cl)c(Cl)c1 | 10% | 69% |  |  |  | 
13 | CN(CCCc1cn(-c2ccc(F)cc2)c2ccccc12)Cc1ccc(Cl)cc1 | 68% | 59% |  |  |  | 
14 | Cc1ccc(CN(C)CCCc2cn(-c3ccc(F)cc3)c3ccccc23)cc1 | 69% | 78% |  |  |  | 
15 | CN(CCCCc1cn(-c2ccc(F)cc2)c2ccccc12)Cc1ccccc1 | 76% | 68% | 43 nM | 57.7 nM | 0.76 | 
16 | CN(CCCCc1cn(-c2ccc(F)cc2)c2ccccc12)Cc1cccc(Cl)c1 | 22% | 89% | 201 nM | 25.6 nM | 7.9 | 
17 | CN(CCCc1cn(-c2ccc(F)cc2)c2ccccc12)Cc1ccccc1F | 59% | 46% |  |  |  | 
18 | CN(CCCc1cn(-c2ccc(F)cc2)c2ccccc12)Cc1ccccc1Cl | 56% | 40% |  |  |  | 
19 | Cc1ccc(CN(C)CCCCc2cn(-c3ccc(F)cc3)c3ccccc23)cc1 | 71% | 87% |  |  |  | 
20 | CN(CCCc1cn(-c2ccc(F)cc2)c2ccccc12)Cc1cccc(Cl)c1 | 42% | 59% | 98.9 nM | 124 nM | 0.8 | 
21 | Cc1cccc(CN(C)CCCCc2cn(-c3ccc(F)cc3)c3ccccc23)c1 | 51% | 85% |  |  |  | 
22 | Fc1ccc(-n2cc(CCCCN3CCC4(CC3)OCc3ccccc34)c3ccccc32)cc1 [SIRAMESINE] |  |  |  |  |  | 0.12 nM
23 | CN(CCCc1cn(-c2ccc(F)cc2)c2ccccc12)Cc1ccccc1 | 78% | 27% | 20.8 nM | 444 nM | 0.05 | 
24 | CN(CCCc1cn(-c2ccc(F)cc2)c2ccccc12)Cc1ccc(Br)cc1 | 71% | 54% |  |  |  | 
25 | Cc1ccc(CN(C)CCCc2cn(-c3ccc(F)cc3)c3ccccc23)cc1C | 38% | 85% | 118 nM | 46.9 nM | 2.5 | 
26 | CN(CCCCc1cn(-c2ccc(F)cc2)c2ccccc12)Cc1ccc(Cl)cc1 | 72% | 85% |  |  |  | 
